pIC50: −log10 of the molar value. The source made the active and inactive calls. The rule behind the calls is not given here.
Tests used:
[1] = system: Protein cereblon/Epidermal growth factor receptor (Homo sapiens), P00533+Q96SW2 [L858R,T790M,C797S]; assay: PROTAC activity at CRBN/EGFR L858R/T790M/C797S mutant in human H1975-TM cells assessed as induction of EGFR degradation by measuring maximal efficacy at 300 nM incubated for 24 hrs by Western blot analysis relative to control; type: cell-based
[2] = system: Protein cereblon/Epidermal growth factor receptor (Homo sapiens), P00533+Q96SW2 [L858R,T790M,C797S]; assay: PROTAC activity at CRBN/EGFR L858R/T790M/C797S mutant in human H1975-TM cells assessed as induction of EGFR degradation by measuring remaining activity at 11 nM incubated for 24 hrs by Western blot analysis (reference value: 100%); type: cell-based
[3] = system: Protein cereblon/Epidermal growth factor receptor (Homo sapiens), P00533+Q96SW2 [L858R,T790M,C797S]; assay: PROTAC activity at CRBN/EGFR L858R/T790M/C797S mutant in human H1975-TM cells assessed as induction of EGFR degradation by measuring remaining activity at 300 nM incubated for 24 hrs by Western blot analysis (reference value: 100%); type: cell-based
[4] = system: Protein cereblon/Epidermal growth factor receptor (Homo sapiens), P00533+Q96SW2 [L858R,T790M,C797S]; assay: PROTAC activity at CRBN/EGFR L858R/T790M/C797S mutant in human H1975-TM cells assessed as induction of EGFR degradation by measuring remaining activity at 100 nM incubated for 3 hrs by Western blot analysis (reference value: 100%); type: cell-based
[5] = system: Protein cereblon/Epidermal growth factor receptor (Homo sapiens), P00533+Q96SW2 [L858R,T790M,C797S]; assay: PROTAC activity at CRBN/EGFR L858R/T790M/C797S mutant in human H1975-TM cells assessed as induction of EGFR degradation by measuring remaining activity at 100 nM preincubated for 24 hrs followed by compound washout and measured after 6 hrs by Western blot analysis (reference value: 100%); type: cell-based
[6] = system: Protein cereblon/Epidermal growth factor receptor (Homo sapiens), P00533+Q96SW2 [L858R,T790M,C797S]; assay: PROTAC activity at CRBN/EGFR L858R/T790M/C797S mutant in human H1975-TM cells assessed as induction of EGFR degradation by measuring remaining activity at 100 nM preincubated for 24 hrs followed by compound washout and measured after 24 hrs by Western blot analysis (reference value: 100%); type: cell-based
[7] = system: Protein cereblon/Epidermal growth factor receptor (Homo sapiens), P00533+Q96SW2 [L858R,T790M,C797S]; assay: PROTAC activity at CRBN/EGFR L858R/T790M/C797S mutant in human H1975-TM cells assessed as induction of EGFR degradation by measuring remaining activity at 50 nM preincubated with MG132 for 6 hrs followed by compound addition and measured after 24 hrs by Western blot analysis (reference value: 100%); type: cell-based
[8] = system: Protein cereblon/Epidermal growth factor receptor (Homo sapiens), P00533+Q96SW2 [L858R,T790M]; assay: (§1) PROTAC activity at CRBN/EGFR L858R/T790M mutant in human NCI-H1975 cells assessed as induction of EGFR degradation incubated for 24 hrs by Western blot analysis; type: cell-based
[9] = biological target: Protein cereblon/Epidermal growth factor receptor (Homo sapiens, UniProt P00533+Q96SW2, T790M/L858R); assay: as §1; type: cell-based
[10] = biological target: Protein cereblon/Epidermal growth factor receptor (Homo sapiens, UniProt P00533+Q96SW2); assay: PROTAC activity at CRBN/wildtype EGFR in human A549 cells assessed as induction of EGFR degradation incubated for 24 hrs by Western blot analysis; type: cell-based
NCI-H1975 = assay: Antiproliferative activity against human NCI-H1975 cells harboring EGFR L858R/T790M mutant assessed as inhibition of cell proliferation incubated for 72 hrs by CCK8 assay; type: functional, cell-based; conditions: NCI-H1975, 72 h
A549 = assay: Antiproliferative activity against human A549 cells harboring wildtype EGFR assessed as inhibition of cell proliferation incubated for 72 hrs by CCK8 assay; type: functional, cell-based; conditions: A549, 72 h
[11] = biological target: Cyclin-dependent kinase 16 (Homo sapiens) (UniProt Q00536); assay: Induction of CDK16 degradation in human H1975-TM cells at 50 nM incubated for 24 hrs; type: cell-based
[12] = biological target: Probable U3 small nucleolar RNA-associated protein 11 (Homo sapiens) (UniProt Q9Y3A2); assay: Induction of UTP11 degradation in human H1975-TM cells at 50 nM incubated for 24 hrs; type: cell-based
[13] = biological target: Ribosomal protein S6 kinase alpha-1 (Homo sapiens) (UniProt Q15418); assay: Induction of RPS6KA1 degradation in human H1975-TM cells at 50 nM incubated for 24 hrs; type: cell-based
[14] = biological target: Hepatocyte growth factor receptor (Homo sapiens) (UniProt P08581); assay: Induction of MET degradation in human H1975-TM cells at 50 nM incubated for 24 hrs; type: cell-based
[15] = Inhibition of colony formation in human H1975-TM cells harboring EGFR L858R/T790M/C797S mutant at 33 nM incubated for 14 days by crystal violet staining based analysis relative to control; type: functional; conditions: 336 h, time 14 day
H1975-TM [16] = assay: Induction of cell cycle arrest in human H1975-TM cells harboring EGFR L858R/T790M/C797S mutant assessed as accumulation of cells at G0/G1 phase at 5 to 60 nM incubated for 24 hrs by RNase/PI staining based analysis; type: functional; conditions: dose 5-60 nM
[17] = biological target: Epidermal growth factor receptor (Homo sapiens) (UniProt P00533); assay: Inhibition of EGFR signaling in human H1975-TM cells harboring EGFR L858R/T790M/C797S mutant assessed as reduction in ERK activation by Western blot analysis; type: cell-based; conditions: dose 1.2-300 nM
H1975-TM [18] = assay: Antitumor activity against human H1975-TM cells xenografted in BALB/c nude mouse assessed as decrease in tumor cell proliferation at 25 to 100 mg/kg, po administered once daily for 31 days by Ki67 staining based light microscopic analysis; type: functional, organism-based; conditions: dose 25-100 mg/kg, time 31.0 day
Mus musculus [19] = assay: In vivo PROTAC activity at CRBN/EGFR L858R/T790M/C797S mutant in BALB/c nude mouse xenografted with human […] cells assessed as decrease in EGFR protein level in tumor at 25 to 100 mg/kg, po administered once daily for 31 days by Western blot analysis; type: functional, organism-based; conditions: dose 25-100 mg/kg, time 31.0 day
Mus musculus [20] = assay: In vivo inhibition of EGFR signaling in BALB/c nude mouse xenografted with human […] cells assessed as reduction in ERK activation at 25 to 100 mg/kg, po administered once daily for 31 days by Western blot analysis; type: functional, organism-based; conditions: dose 25-100 mg/kg, time 31.0 day
Mus musculus [21] = assay: In vivo inhibition of EGFR signaling in BALB/c nude mouse xenografted with human […] cells assessed as reduction in AKT activation at 25 to 100 mg/kg, po administered once daily for 31 days by Western blot analysis; type: functional, organism-based; conditions: dose 25-100 mg/kg, time 31.0 day
[22] = Toxicity in BALB/c nude mouse xenografted with human H1975-TM cells assessed as effect on body weight at 25 to 100 mg/kg, po administered once daily for 31 days; type: organism-based; conditions: in vivo, 744 h, dose 25-100 mg/kg, time 31 day
[23] = Toxicity in BALB/c nude mouse xenografted with human H1975-TM cells assessed as lung lesions at 25 to 100 mg/kg, po administered once daily for 31 days by Hematoxylin and eosin staining based analysis; type: organism-based; conditions: in vivo, 744 h, dose 25-100 mg/kg, time 31 day
[24] = MRT (0 to infinity) in male Sprague-Dawley rat at 5 mg/kg, iv measured after 24 hrs by LC-MS/MS analysis; type: ADME, organism-based; conditions: in vivo
[25] = Tmax in male Sprague-Dawley rat at 50 mg/kg, po measured after 24 hrs by LC-MS/MS analysis; type: ADME, organism-based; conditions: in vivo

Probable U3 small nucleolar RNA-associated protein 11 (Homo sapiens), sequence (Q9Y3A2 whole entry): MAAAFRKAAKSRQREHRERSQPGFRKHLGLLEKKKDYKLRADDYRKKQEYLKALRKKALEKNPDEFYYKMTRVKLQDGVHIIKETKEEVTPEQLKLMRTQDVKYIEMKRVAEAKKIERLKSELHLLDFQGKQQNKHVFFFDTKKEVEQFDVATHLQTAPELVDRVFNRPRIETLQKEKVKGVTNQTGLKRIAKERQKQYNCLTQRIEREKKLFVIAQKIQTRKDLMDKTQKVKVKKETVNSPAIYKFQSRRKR
Ribosomal protein S6 kinase alpha-1 (Homo sapiens), sequence (Q15418 whole entry): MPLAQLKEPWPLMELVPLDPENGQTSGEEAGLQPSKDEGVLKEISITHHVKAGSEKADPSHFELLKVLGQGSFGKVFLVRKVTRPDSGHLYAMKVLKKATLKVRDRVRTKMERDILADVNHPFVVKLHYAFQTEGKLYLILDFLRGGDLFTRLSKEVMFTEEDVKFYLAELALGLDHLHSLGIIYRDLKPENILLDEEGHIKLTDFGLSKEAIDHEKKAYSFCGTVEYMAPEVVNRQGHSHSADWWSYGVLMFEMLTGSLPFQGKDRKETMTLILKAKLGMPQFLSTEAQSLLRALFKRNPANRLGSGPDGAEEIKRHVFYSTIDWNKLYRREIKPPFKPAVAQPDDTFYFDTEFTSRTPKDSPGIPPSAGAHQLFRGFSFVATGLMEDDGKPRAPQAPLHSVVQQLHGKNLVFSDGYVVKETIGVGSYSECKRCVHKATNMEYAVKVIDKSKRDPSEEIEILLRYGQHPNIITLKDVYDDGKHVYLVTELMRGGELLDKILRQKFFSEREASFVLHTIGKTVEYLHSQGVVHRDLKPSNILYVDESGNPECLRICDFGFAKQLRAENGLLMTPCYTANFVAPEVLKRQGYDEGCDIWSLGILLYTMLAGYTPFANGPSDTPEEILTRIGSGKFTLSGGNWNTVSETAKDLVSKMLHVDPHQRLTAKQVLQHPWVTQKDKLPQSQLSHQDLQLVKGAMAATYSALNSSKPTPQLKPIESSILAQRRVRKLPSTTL
Cyclin-dependent kinase 16 (Homo sapiens), sequence (Q00536 whole entry): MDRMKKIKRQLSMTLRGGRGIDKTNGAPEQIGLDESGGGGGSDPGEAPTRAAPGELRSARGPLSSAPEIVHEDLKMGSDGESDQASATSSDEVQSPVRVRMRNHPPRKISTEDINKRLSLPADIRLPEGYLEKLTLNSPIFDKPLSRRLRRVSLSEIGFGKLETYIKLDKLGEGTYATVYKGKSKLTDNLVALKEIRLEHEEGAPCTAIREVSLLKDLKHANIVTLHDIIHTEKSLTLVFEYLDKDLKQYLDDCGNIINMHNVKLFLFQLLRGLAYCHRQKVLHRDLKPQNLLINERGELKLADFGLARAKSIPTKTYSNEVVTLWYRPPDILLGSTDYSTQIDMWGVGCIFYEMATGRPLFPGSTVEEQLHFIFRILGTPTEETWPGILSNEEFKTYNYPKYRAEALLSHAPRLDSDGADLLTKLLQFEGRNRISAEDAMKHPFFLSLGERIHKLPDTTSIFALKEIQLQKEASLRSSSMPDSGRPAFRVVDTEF
Hepatocyte growth factor receptor (Homo sapiens), sequence (P08581 whole entry): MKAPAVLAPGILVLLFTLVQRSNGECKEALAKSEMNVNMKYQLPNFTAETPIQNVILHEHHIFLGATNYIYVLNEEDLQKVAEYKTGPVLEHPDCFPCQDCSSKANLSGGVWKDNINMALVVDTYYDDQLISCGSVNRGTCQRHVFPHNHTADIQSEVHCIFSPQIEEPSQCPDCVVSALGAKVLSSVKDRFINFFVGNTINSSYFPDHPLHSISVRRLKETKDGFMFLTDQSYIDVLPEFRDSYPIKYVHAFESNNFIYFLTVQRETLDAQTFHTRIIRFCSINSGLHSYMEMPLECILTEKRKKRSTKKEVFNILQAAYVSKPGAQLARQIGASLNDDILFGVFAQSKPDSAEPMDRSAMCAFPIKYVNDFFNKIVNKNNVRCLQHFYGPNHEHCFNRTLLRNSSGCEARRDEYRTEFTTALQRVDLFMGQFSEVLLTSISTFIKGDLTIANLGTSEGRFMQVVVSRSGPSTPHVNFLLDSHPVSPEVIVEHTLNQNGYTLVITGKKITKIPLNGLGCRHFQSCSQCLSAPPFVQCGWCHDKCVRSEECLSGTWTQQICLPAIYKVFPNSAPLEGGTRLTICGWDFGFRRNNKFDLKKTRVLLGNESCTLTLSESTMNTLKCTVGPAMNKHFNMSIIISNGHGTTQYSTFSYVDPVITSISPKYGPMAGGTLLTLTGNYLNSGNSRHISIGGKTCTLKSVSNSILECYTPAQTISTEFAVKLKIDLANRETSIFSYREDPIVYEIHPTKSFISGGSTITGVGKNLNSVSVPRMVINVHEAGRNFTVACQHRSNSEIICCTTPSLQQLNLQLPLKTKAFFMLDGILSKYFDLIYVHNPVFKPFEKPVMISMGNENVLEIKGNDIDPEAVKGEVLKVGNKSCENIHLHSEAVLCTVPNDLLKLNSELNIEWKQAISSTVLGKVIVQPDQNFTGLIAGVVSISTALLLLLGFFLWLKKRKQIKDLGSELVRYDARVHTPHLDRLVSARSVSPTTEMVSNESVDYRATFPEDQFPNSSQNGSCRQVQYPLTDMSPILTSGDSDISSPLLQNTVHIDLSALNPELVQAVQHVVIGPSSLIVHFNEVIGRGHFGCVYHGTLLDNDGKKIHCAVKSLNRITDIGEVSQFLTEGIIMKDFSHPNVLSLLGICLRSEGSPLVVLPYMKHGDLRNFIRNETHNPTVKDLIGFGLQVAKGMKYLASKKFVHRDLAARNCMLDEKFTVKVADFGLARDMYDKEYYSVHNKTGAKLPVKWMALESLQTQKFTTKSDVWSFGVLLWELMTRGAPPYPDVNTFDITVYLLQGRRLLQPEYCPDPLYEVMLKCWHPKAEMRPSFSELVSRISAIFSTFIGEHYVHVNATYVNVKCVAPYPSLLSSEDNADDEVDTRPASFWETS

**Q.** For `CCS(=O)(=O)n1cc(-c2nc(Nc3ccc(N4CCN(CCCCCCC(=O)Nc5cccc6c5CN(C5CCC(=O)NC5=O)C6=O)CC4)cc3)ncc2C(F)(F)F)c2ccccc21` (configuration not stated), which Emax [1] is on record?
**A.** > 95%

**Q.** What about the Activity [2] of the same molecule?
**A.** 33.5%

**Q.** And the Activity [3]?
**A.** 0.1%

**Q.** What about the Activity [4] of the same molecule?
**A.** 75.7%

**Q.** What about the Activity [5] of the same molecule?
**A.** 36.1%

**Q.** And the Activity [6]?
**A.** 52.9%

**Q.** What about the Activity [7] of the same molecule?
**A.** 73.6%

**Q.** And the Activity [8]?
**A.** Dose-Dependent Effect

**Q.** And the DC50 [9]?
**A.** 88.5 nM

**Q.** What about the DC50 [10] of the same molecule?
**A.** > 300 nM

**Q.** What about the pIC50 (NCI-H1975) of the same molecule?
**A.** 7.34

**Q.** And the pIC50 (A549)?
**A.** 7.01

**Q.** And the Activity [11]?
**A.** Active

**Q.** And the Activity [12]?
**A.** Active

**Q.** And the Activity [13]?
**A.** Active

**Q.** What about the Activity [14] of the same molecule?
**A.** Active

**Q.** What about the inhibition at 0.033 µM [15] of the same molecule?
**A.** ~100%

**Q.** What about the Activity (H1975-TM [16]) of the same molecule?
**A.** Active

**Q.** And the inhibition [17]?
**A.** Dose-Dependent Effect

**Q.** And the Activity (H1975-TM [18])?
**A.** Active

**Q.** What about the Activity (Mus musculus [19]) of the same molecule?
**A.** Active

**Q.** And the inhibition (Mus musculus [20])?
**A.** Active

**Q.** And the inhibition (Mus musculus [21])?
**A.** Active

**Q.** And the Activity [22]?
**A.** Non-Toxic

**Q.** And the Activity [23]?
**A.** Non-Toxic

**Q.** And the MRT inf [24]?
**A.** 18.4 h

**Q.** And the Tmax [25]?
**A.** 5.7 h
